Assay results reported in ChEMBL document CHEMBL6114999, “Natural pyrrolo[1,2-a]quinazolinone derivatives: Design, synthesis, characterization, and bio-evaluation as novel antiviral agents” (Eur J Med Chem, 2025).
Activity calls are given as the source filed them. The rule behind the calls is not given here.

Experiments:
Enterovirus [1] = experiment: Antiviral activity against EV71 infected in human RD cells assessed as protection from virus-induced cytopathogenicity incubated for 48 hrs by MTT assay; type: functional, organism-based; details: Enterovirus, 71, RD
[2] = Cytotoxicity against human RD cells incubated for 48 hrs by MTT assay; type: toxicity, cell-based
[3] = Selectivity index, ratio of CC50 for cytotoxicity against human RD cells to EC50 for antiviral activity against EV71 infected in human RD cells; type: toxicity, cell-based; details: read-out: Ratio CC50/EC50
Coxsackievirus B3 [4] = experiment: Antiviral activity against CVB3 infected in HEp-2 cells assessed as protection from virus-induced cytopathogenicity incubated for 48 hrs by MTT assay; type: functional, organism-based; details: Enterovirus B, HEp-2, 48 h
[5] = Cytotoxicity against human HEp-2 cells incubated for 48 hrs by MTT assay; type: toxicity, cell-based
[6] = Selectivity index, ratio of CC50 for cytotoxicity against HEp-2 cells to EC50 for antiviral activity against CVB3 infected in HEp-2 cells; type: toxicity, cell-based; details: human, read-out: Ratio CC50/EC50
Coxsackievirus B3 [7] = experiment: Antiviral activity against CVB3 infected in HEp-2 cells assessed as inhibition of virus-induced cell death at 25 to 100 uM incubated for 48 hrs by MTT assay; type: functional, organism-based; details: dose 25-100 µM
Enterovirus [8] = experiment: Antiviral activity against EV71 infected in human RD cells assessed as inhibition of virus-induced cell death at 25 to 100 uM incubated for 48 hrs by MTT assay; type: functional, organism-based; details: 71, dose 25-100 µM
Coxsackievirus B3 [9] = experiment: Antiviral activity against CVB3 infected in HEp-2 cells assessed as inhibition of virus-induced cell death at 100 uM incubated for 48 hrs by MTT assay relative to control; type: functional; details: for inhibition at 100 µM: Enterovirus B, HEp-2, 48 h; for inhibition (INH): 48 h, 100 µM
Enterovirus [10] = experiment: Antiviral activity against EV71 infected in human RD cells assessed as inhibition of virus-induced cell death at 100 uM incubated for 48 hrs by MTT assay relative to control; type: functional, 71; details: for inhibition at 100 µM: Enterovirus, 71, RD
Coxsackievirus B3 [11] = experiment: Antiviral activity against CVB3 infected in HEp-2 cells assessed as inhibition of virus-induced cell death at 25 uM incubated for 48 hrs by MTT assay relative to control; type: functional; details: Enterovirus B
Coxsackievirus B3 [12] = experiment: Antiviral activity against CVB3 infected in HEp-2 cells assessed as inhibition of virus-induced cell death at 50 uM incubated for 48 hrs by MTT assay relative to control; type: functional; details: Enterovirus B
Enterovirus [13] = experiment: Antiviral activity against EV71 infected in human RD cells assessed as inhibition of virus-induced cell death at 25 uM incubated for 48 hrs by MTT assay relative to control; type: functional; details: Enterovirus, 71, RD
Enterovirus [14] = experiment: Antiviral activity against EV71 infected in human RD cells assessed as inhibition of virus-induced cell death at 50 uM incubated for 48 hrs by MTT assay relative to control; type: functional; details: Enterovirus, 71, RD

SMILES	EC50 (Enterovirus [1]) [µM]	CC50 at 48 h [2] [µM]	selectivity ratio [3]	EC50 (Coxsackievirus B3 [4]) [µM]	CC50 at 48 h [5] [µM]	selectivity ratio [6]	antiviral activity call (active/inactive) (Coxsackievirus B3 [7])	inhibition (Enterovirus [8])	inhibition at 100 µM (Coxsackievirus B3 [9]) [%]	inhibition at 100 µM (Enterovirus [10]) [%]	inhibition at 25 µM (Coxsackievirus B3 [11]) [%]	inhibition at 50 µM (Coxsackievirus B3 [12]) [%]	inhibition at 25 µM (Enterovirus [13]) [%]	inhibition at 50 µM (Enterovirus [14]) [%]	inhibition (INH) (Coxsackievirus B3 [9]) [%]	Imax (Enterovirus [10]) [%]
CC(NC(=O)C12CCC(=O)N1c1ccc(Cl)cc1C(=O)N2)c1ccccc1 (stereo not given)	29.4	270	9.2	103	239	2.3	Active	Active	47.9	71.7	16	31.5	44.4	53.3	–	–
CN1C(=O)c2ccccc2N2C(=O)CCC12C(=O)NCCS(C)(=O)=O (stereo not given)	–	251	–	64.5	205	–	Active	–	55.2	62.3	38.9	46.6	33	56.7	–	–
COC(=O)C(CCSC)NC(=O)C12CCC(=O)N1c1ccccc1C(=O)N2C (stereo not given)	–	252	–	–	200	3.6	–	–	27.3	1.3	20.8	20.2	3.2	6.2	–	–
COc1cc(CNC(=O)C23CCC(=O)N2c2ccccc2C(=O)N3)ccc1O (stereo not given)	–	264	–	35.8	238	6.6	Active	–	82.4	91.3	42.2	56.6	64.3	85.9	82.4	91.33
COC(=O)C(CCSC)NC(=O)C12CCC(=O)N1c1ccccc1C(=O)N2 (stereo not given)	–	245	–	–	212	–	–	–	27.9	4.8	13.3	21.7	6.1	5	–	–
COc1cc(CNC(=O)C23CCC(=O)N2c2ccc(Cl)cc2C(=O)N3)ccc1O (stereo not given)	27.2	160	5.9	17.4	188	10.8	Active	Active	87.3	97.5	48.9	30.7	67.5	81.3	92.3	97.48
CSCCNC(=O)C12CCC(=O)N1c1ccccc1C(=O)N2 (stereo not given)	–	288	–	–	210	–	–	–	26.9	3.9	7.9	12.3	5.7	7.3	–	–
CSCCNC(=O)C12CCC(=O)N1c1ccccc1C(=O)N2C (stereo not given)	–	278	–	–	238	–	–	–	32.1	7.9	20.7	24.4	6.6	13.7	–	–
CS(=O)(=O)CCNC(=O)C12CCC(=O)N1c1ccc(Cl)cc1C(=O)N2 (stereo not given)	–	243	–	–	202	–	–	–	28.5	22.8	12.2	24.3	33.8	28	–	–
CSCCNC(=O)C12CCC(=O)N1c1ccc(Cl)cc1C(=O)N2 (stereo not given)	44.5	269	6	–	315	–	–	Active	46.7	26.2	20.3	30.1	34.9	28.8	–	–
COC(=O)C(Cc1c[nH]c2ccccc12)NC(=O)C12CCC(=O)N1c1ccccc1C(=O)N2 (stereo not given)	28.8	230	8	43	177	4.1	Active	Active	83.1	89.1	30.8	45.7	65.8	74	–	–
COC(=O)C(Cc1c[nH]c2ccccc12)NC(=O)C12CCC(=O)N1c1ccc(Cl)cc1C(=O)N2 (stereo not given)	24.8	158	6.4	55.6	171	3.1	Active	Active	63.7	74	36.6	45	60.6	75.3	–	–
CC(NC(=O)C12CCC(=O)N1c1ccccc1C(=O)N2)c1ccccc1 (stereo not given)	32.4	256	7.9	–	205	–	–	Active	–	–	–	–	–	–	–	–
CS(=O)(=O)CCNC(=O)C12CCC(=O)N1c1ccccc1C(=O)N2 (stereo not given)	–	262	–	–	176	3.2	–	–	11.9	1.6	3.6	6.5	2	3.2	–	–
CC(NC(=O)C12CCC(=O)N1c1ccccc1C(=O)N2C)c1ccccc1 (stereo not given)	–	234	–	–	223	–	–	–	–	–	–	–	–	–	–	–
COC(=O)C(CCSC)NC(=O)C12CCC(=O)N1c1ccc(Cl)cc1C(=O)N2 (stereo not given)	53.4	235	4.4	60.1	214	–	Active	Active	58.8	58.7	29.8	49.9	50.3	58.8	–	–
COc1cc(CNC(=O)C23CCC(=O)N2c2ccccc2C(=O)N3C)ccc1O (stereo not given)	–	243	–	–	251	–	Active	–	–	–	–	–	–	–	–	–
